Publication PMC5716539, “The acute glucose lowering effect of specific GPR120 activation in mice is mainly driven by glucagon-like peptide 1” (PLoS ONE, 2017)

Assays:
human GPR120 [1] = biological target: T1, human GPR120 (Homo sapiens, UniProt Q5NUL3); experiment: Calcium mobilization assay in CHO-hGPR120 cells; format: cell-based; details: for Calcium mobilization after Gαq inhibition: CHO-hGPR120 cells pre-treated with 1 μM QIC; for EC50: CHO-hGPR120 cells, mean ± SEM
T1 construct: expressed in transfected cells
T1 sequence (Q5NUL3 1-361): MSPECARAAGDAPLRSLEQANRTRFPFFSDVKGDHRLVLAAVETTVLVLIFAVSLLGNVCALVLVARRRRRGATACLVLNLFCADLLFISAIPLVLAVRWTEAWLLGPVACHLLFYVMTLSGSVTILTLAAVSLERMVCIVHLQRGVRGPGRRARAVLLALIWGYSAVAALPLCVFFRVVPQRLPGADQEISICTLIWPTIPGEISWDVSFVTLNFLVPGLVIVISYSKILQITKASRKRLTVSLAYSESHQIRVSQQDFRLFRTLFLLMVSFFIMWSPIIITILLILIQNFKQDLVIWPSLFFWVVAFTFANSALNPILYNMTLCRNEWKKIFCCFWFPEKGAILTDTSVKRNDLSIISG
Procedure: (§1) CHO-hGPR120 and CHO cells were cultured in DMEM/F-12 (Invitrogen) with 10% FBS (Sigma) and HEK293-mGPR40 in DMEM (Invitrogen) supplemented with 10% FBS in 384-well poly-D-Lysin coated microplates (Greiner) at 37°C, 95% humidity and 5% CO2. After 19 hours cell media was replaced with Calcium4 dye (Molecular Devices) in HBSS (Invitrogen), 20 mM HEPES (Invitrogen), pH 7.4 and 1.25 mM Probenecid (Sigma). After 1 hour at room temperature agonists were added and calcium mobilization was detected as change in fluorescence (λex = 488 and λem = 540 nm) using a FLIPR^TETRA (Molecular Devices).

[2] = test system: dispersed wt mouse islets cell; experiment: cAMP production in dispersed wild type mouse islet cells; format: cell-based; details: 10 μM agonist, vs control cells
Procedure: (§2) Mouse islets were isolated from pancreas by collagenase digestion, handpicked under microscope following multiple washing steps and dispersed to single cells using TrypLE Express (Gibco). The dispersed islet cells (20 000 cells/well) were incubated with the GPR120 agonists for 30 min in 96-well black plates (Corning) at 37°C in Krebs ringer phosphate Hepes buffer, pH 7.4, with 11 mM Glucose, 0.1% BSA and 0.5 mM 3-isobutyl-1-methylxanthine followed by addition of d2-labeled cAMP and anti-cAMP Cryptate in conjugation and lysis buffer (Cisbio). Produced cAMP was detected with homogenous time resolved fluorescence (HTRF) (λex = 340 nm, λem = 665 and 615 nm) using a Pherastar (BMG Labtech).

[3] = Pharmacokinetic properties; format: in vivo, mice; details: insufficient for chronic treatment
control CHO cells [4] = experiment: cAMP assay in control CHO cells; format: cell-based, Chinese hamster
Procedure: (§3) CHO-hGPR120 or CHO cells in HBSS (Invitrogen), 20 mM HEPES (Invitrogen), pH 7.4, 0.01% BSA, 1.5 mM 3-isobutyl-1-methylxanthine (Sigma) and d2-labeled cAMP (CisBio) were incubated with GPR120 agonists (1% DMSO) for 45 min at room temperature in white small-volume 384-well plates (Greiner). The reaction was terminated by addition of conjugate and lysis buffer (CisBio) supplemented with anti-cAMP Cryptate (CisBio).

control CHO cells [5] = experiment: DMR assay in control CHO cells; format: cell-based, Chinese hamster; details: control CHO cells (empty vector)
Procedure: (§4) DMR (dynamic mass redistribution) was measured by resonant waveguide grating (RWG) using an Epic biosensor (Corning). CHO-hGPR120, CHO-mGPR120 and CHO cells in DMEM/F-12 (Invitrogen) were cultured in fibronectin coated 384-well Epic plates (Corning) at 37°C, 95% humidity and 5% CO2 for 5 hours with 10% FBS (Sigma), followed by 19 hours without FBS. CHO-hGPR40 cells were cultured at 37°C, 95% humidity and 5% CO2 for 20–24 hours in Ham’s F-12 Nutrient Mix with GlutaMAX (Invitrogen) supplemented with Non-Essential Amino Acids (Gibco) and 10% FBS (Sigma) in fibronectin coated 384-well Epic plates (Corning). Following the incubations culture media was replaced with HBSS (Invitrogen), 20 mM HEPES (Invitrogen), pH 7.4 and 1% DMSO and equilibrated to 26°C in the Epic for thirty min before addition of agonists and detection of DMR.

mouse GPR120 [6] = biological target: T2, mouse GPR120 (Mus musculus, UniProt Q7TMA4); experiment: cAMP production in CHO cells overexpressing mouse GPR120; format: cell-based; details: data not shown
T2 construct: expressed in transfected cells
T2 sequence (Q7TMA4 1-361): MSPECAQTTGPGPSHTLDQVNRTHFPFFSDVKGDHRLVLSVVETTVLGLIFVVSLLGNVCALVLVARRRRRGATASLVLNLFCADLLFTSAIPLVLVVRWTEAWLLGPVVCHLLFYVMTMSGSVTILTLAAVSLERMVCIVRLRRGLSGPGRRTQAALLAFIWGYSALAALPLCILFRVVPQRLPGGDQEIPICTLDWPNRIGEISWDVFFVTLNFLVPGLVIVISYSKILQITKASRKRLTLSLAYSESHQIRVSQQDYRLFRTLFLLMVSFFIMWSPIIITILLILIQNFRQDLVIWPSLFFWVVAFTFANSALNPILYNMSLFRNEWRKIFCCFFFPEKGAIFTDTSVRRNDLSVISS

lean mice = experiment: Plasma total GLP-1 levels after oral administration in mice; format: in vivo, mouse; details: 30 min after AZ13581837 or 60 min after Metabolex-36, oral, vs respective control group
Procedure: In separate experiments, mice were pretreated with the GLP-1 receptor antagonist exendin 9–39 (30 nmol/kg, Bachem; intraperitoneally) alone or in combination with the GPR120 agonists, 15 min prior to the IVGTT. Insulin and glucose were measured 0, 1, 5, 10, 20 and 40 min after intravenous (iv) glucose administration. In separate groups of mice total GLP-1 levels were measured 60 min after oral administration of Metabolex-36 or 30 min after AZ13581837 and in corresponding vehicle (0.5% HPMC, 0.1% Tween-80) dosed mice. Blood samples were collected in EDTA coated tubes, centrifuged at 10000xg for 4 min, and plasma was separated and stored frozen until analyzed.
Glucose was measured using a glucometer (AccuCheck, Bayer). Circulating hormones were measured using specific ELISA kits; insulin (ultra-sensitive mouse insulin, Crystal Chemistry), and total and active GLP-1 (Millipore).

[7] = test system: islets from GPR120 null mice; experiment: cAMP production in dispersed islet cells from GPR120 null mice; format: cell-based, mouse; details: 10 μM agonist
Procedure: as §2

mouse GPR40 = biological target: T3, mouse GPR40 (Mus musculus, UniProt Q76JU9); experiment: Calcium mobilization assay in HEK293-mGPR40 cells; format: cell-based
T3 construct: expressed in transfected cells
Procedure: as §1

human GPR120 [8] = biological target: T1, human GPR120; experiment: cAMP assay in CHO-hGPR120 cells; format: cell-based; details: cAMP production in CHO-hGPR120 cells; mean ± SEM
Procedure: as §3

control CHO cells [9] = experiment: Calcium mobilization assay in control CHO cells; format: cell-based, Chinese hamster
Procedure: as §1

mouse GPR120 [10] = biological target: T2, mouse GPR120; experiment: DMR assay in CHO-mGPR120 cells; format: cell-based
Procedure: as §4

T3 sequence (Q76JU9 whole entry): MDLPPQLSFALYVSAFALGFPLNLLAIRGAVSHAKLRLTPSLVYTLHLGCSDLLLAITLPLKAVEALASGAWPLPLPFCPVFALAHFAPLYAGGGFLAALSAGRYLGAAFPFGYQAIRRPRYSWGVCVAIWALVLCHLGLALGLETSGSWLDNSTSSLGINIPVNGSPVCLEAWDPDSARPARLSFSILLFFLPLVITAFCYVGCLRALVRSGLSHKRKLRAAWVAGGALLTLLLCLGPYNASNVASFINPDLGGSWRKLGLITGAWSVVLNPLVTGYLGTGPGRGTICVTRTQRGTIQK

Compound | Calcium mobilization after Gαq inhibition (human GPR120 [1]) | EC50 (human GPR120 [1]) [nM] | cAMP production in dispersed wt mouse islet cells [2] | Pharmacokinetic properties (half-life) [3] | cAMP levels in control CHO cells (control CHO cells [4]) | DMR response in control CHO cells (control CHO cells [5]) | Activation or inhibition of cAMP production in CHO cells overexpressing mouse GPR120 (mouse GPR120 [6]) | Total GLP-1 levels (lean mice) | cAMP production in islets from GPR120 null mice [7] | Activation of mouse GPR40 in calcium mobilization assay (mouse GPR40) | EC50 (human GPR120 [8]) [nM] | Calcium response in control CHO cells (control CHO cells [9]) | EC50 (mouse GPR120 [10]) [nM]
3-(3,5-difluoro-4-((3-methyl-1-phenyl-1H-pyrazol-5-yl)methoxy)phenyl)-2-methylpropanoic acid [Metabolex-36] | completely abolished | 1800 ± 190 | significantly reduced cAMP production | short half-life | no increase | without activity | unable to detect | significant increase | no effect | did not activate | 6700 ± 1000 | no response | 130 ± 20
C#Cc1cc(Oc2cccnc2)cc(N2Cc3ccccc3S2(=O)=O)c1 [AZ13581837, 2-(3-ethynyl-5-(3-pyridyloxy)phenyl)-3H-1,2-benzothiazole 1,1-dioxide] | completely abolished | 120 ± 20 | significantly reduced cAMP production | short half-life | no increase | without activity | unable to detect | significant increase | no effect | did not activate | 60 ± 7 | no response | 4.3 ± 0.6
